According to patent publication US20110275709A1, “TELLURIUM-CONTAINING COMPOUNDS FOR AFFECTING MALE'S FERTILITY FOLLOWING CHEMOTHERAPY AND/OR RADIOTHERAPY” (BIOMAS LTD., priority 2009, published 2011):
“Also recorded” adds a separate entry of the source. Like-named read-outs stand apart in the source and are kept apart here. Marks after values point to notes of the source that are not given here.

Tests used:
Balb/c male mice [1] = test: Effect of treatments on testicular weight (procarbazine-induced testicular damage); assay type: in vivo; settings: AS101 10 μg/mouse ip every other day, FIG. 3
Text: Inbred Balb/c male mice, aged 5-6 weeks, were used. To ensure the fertility of the mice, each mouse was placed with two young healthy females.
(§1) The administration protocols for the four groups are depicted in FIG. 1.
Weights were normalized to the weight of the mouse. Each group contained 10 mice.

Balb/c male mice [2] = test: Histological evaluation of testicular damage (procarbazine); assay type: in vivo; settings: three weekly injections of 200 mg/kg PCB; 5 mice per group; FIGS. 2A-2C
Method: (§2) The removed testes were pierced with a needle and fixed in Bouin's fixative. After 24 hours, testes were washed three times and maintained in 70% ethanol. Samples were then embedded in paraffin and sectioned. Tissue sections (5 μm) were then stained using hematoxylin/eosin and examined randomly under a light microscope (AX70, Olympus, Tokyo, Japan) under ×100 magnification.
as §1
(§3) Each group contained 5 mice.

Balb/c male mice [3] = test: Evaluation of male fertility (procarbazine); assay type: in vivo; settings: females mated with treated males, PCB single dose 200 mg/kg
Method: (§4) Fertility assays were performed on the “chemotherapy only” group, “chemotherapy+AS101” group, and control (PBS) group. Each male was placed with three young virgin females, aged 6 weeks. These females were examined daily for vaginal plugs. Once mating was documented, females were separated, and the pregnancies allowed to progress. […] The number of pregnant females and litter size was noted.
Each group contained 5 male mice.

testicular cells = test: Analysis of testicular damage by DNA flow cytometry (procarbazine); assay type: in vivo; settings: PCB single dose 200 mg/kg; propidium iodide flow cytometry; 5 mice per group; FIG. 6
Method: Quantification of DNA content in testicular cell populations by propidium iodide staining followed by flow cytometry is an objective, rapid, and robust method for the analysis spermatogenic damage. The method provides quantitative values for evaluating the changes in the proportion in the number of 1N (mature and immature haploid), 2N (diploid), and 4N (tetraploid) cells in the testis. The method was performed as previously described (Malkov at al., 1998). Briefly, testes were dissected, decapsulated, and the contents of the testes were transferred into a tube containing 5 ml ice-cold separation medium. Then, a collagenase solution was added and incubation was carried out for 5 minutes at 37° C. under vigorous shaking. The seminiferous cords were allowed to sediment to the bottom of the tube while being incubated on ice. The seminiferous cords were washed twice in 10 ml separation medium, re-suspended in separation medium containing 2.5 mg/ml trypsin and 1U/ml DNase I, incubated for 2 minutes at 37° C., and transferred to ice. Using a Pasteur pipette, the seminiferous cords was disintegrated into single cells and were then filtered through a […] nylon mesh, washed twice with separation medium (centrifugation at 200-300 g), and counted. For FACS analysis, testicular cells were brought to a concentration of 2-3×10^6 cells/ml in separation medium and diluted 1:1 with propidium iodide solution (10 mM Tris pH 8, 1 mM NaCl, 0.1% Nonidet P-40, 0.7 mg/ml Rnase A, and 0.05 mg/ml propidium iodide). Cells were analyzed by a Becton-Dickinson (San Francisco, Calif.) FACSort instrument, equipped with an argon laser, within 2 hours from staining. Excitation was at 488 nm and emission at 585 nm. The parameters measured for each cell were forward scatter (FSC-H), side scatter (SSC-H), and total fluorescence emitted from the cell (FL2-A).
as §3

Balb/c male mice [4] = settings: Cy 200 mg/kg ip once a week for 5 weeks; for Body weight / Epididymis weight / Epididymis weight (normalized to body weight) / Testes weight / Testes weight (normalized to body weight) / Sperm concentration: AS101 10 μg/mouse ip every other day; for Body weight / Epididymis weight / Epididymis weight (normalized to body weight) / Testes weight / Testes weight (normalized to body weight): sacrificed 5 weeks after last injection; for Sperm concentration: epididymal sperm
Method: In order to recover the motile epididymal spermatozoa, the two caudal epididymides were placed in M2 medium (Sigma), minced with fine scissors and incubated at 37° C. in an atmosphere of 95% air and 5% CO2 for 15 minutes prior to careful removal of all medium. Samples were then diluted to a final volume of 1 ml in M2. The concentration of sperm cells in the medium was then evaluated using a hemocytometer, and the samples were frozen at −80° C.
(§5) Ten mice were injected intraperitoneally (ip) with 200 mg/kg of cyclophosphamide (Cy) once a week for a period of 5 weeks (Cy group).
(§6) Another ten mice (Cy+AS101 group) were co-treated with Cy as described for the Cy group and with i.p. injections of AS101 at a dosage of 10 μg/mouse every other day, starting 1 week before the first Cy injection and continuing during the 5 weeks of Cy treatment.
(§7) An additional group of ten mice were injected with PBS only (PBS group), and another ten mice were treated with i.p. injections of AS101 at a dosage of 10 μg/mouse every other day (AS101 group), as described for the Cy+AS101 group. The animals from all groups were sacrificed 5 weeks after the last injection by cervical dislocation, and body weights were determined; thereafter, epididymides and testes were quickly dissected out, weighed and fixed.
Body weight, testes weight, testes weight normalized to body weight, epididymis weight, epididymis weight normalized to body weight, and sperm concentration were determined for the mice of each of the 4 treatment groups.

Balb/c male mice [5] = assay type: in vivo; settings: Cy 200 mg/kg ip weekly for 5 weeks, AS101 10 μg/mouse ip every other day; for testicular histology (seminiferous tubules, cross sections): FIGS. 7A-7D
Method: as §2, §5, §6, §7

[6] = tested on: phosphorylated Akt (pAkt); assay type: in vivo, mice; settings: relative to the PBS group; testes homogenate, densitometry; FIGS. 12A-B
Method: (§8) Frozen testes were homogenized in 1 ml of RIPA lysis buffer containing protease inhibitor cocktail and phosphatase inhibitor cocktail II. The tissue was then pulverized with a Dounce homogenizer and the homogenate subjected to centrifugation at 14,000 g for 15 minutes. The supernatant was collected and used for protein determination using Bradford reagent. Tissue samples were denatured in reducing buffer (62 mM Tris [pH 6.8], 10% glycerol, 2% sodium dodecyl sulfate [SDS], 5% f3-mercaptoethanol and 0.003% bromophenol blue) and separated by electrophoresis on an SDS (12%) polyacrylamide gel at 35 mA. The separated proteins were transferred onto a nitrocellulose membrane using the transfer buffer (39 mM glycine, 48 mM Tris [pH 8.3] and 20% methanol) at 20 V at 4° C. overnight. The membranes were stained with Ponceau S (0.005% in 1% acetic acid) to confirm equal amounts of protein, and blocked with 5% non-fat dry milk in Tris buffered saline with 0.1% TWEEN (TBS-T) for 1 hour at room temperature, and washed three times for 10 minutes each time in TBS-T. The following primary rabbit monoclonal antibodies were used: anti-human phospho-Akt1/2/3, anti-human GSK-3β and anti-human phospho-GSK-3β. Mouse antibody against chicken α-tubulin was used in order to confirm that the protein load was similar in all lanes. Membranes were incubated with the appropriate diluted antibody overnight at 4° C. After being washed three times for 10 minutes each time in TBS-T, the membranes were incubated for 1 hour at room temperature with peroxidase-conjugated goat anti-rabbit or goat anti-mouse IgG antibody. After washing, the membranes were analyzed by an enhanced chemiluminescence system according to the manufacturer's protocol (Pierce). Densitometry was conducted in order to quantify differences in band intensity using the Image J image-processing program (NIH, Bethesda, Md., USA). Results were normalized by comparison to the values in the PBS control group in each membrane.
(§9) Phosphorylation of Akt and GSK-3β was determined using gel electrophoresis and Western blotting, as described in the Materials and Methods section.

[7] = tested on: phosphorylated GSK-3β (pGSK-3β); assay type: in vivo, mice; settings: of the PBS group; testes homogenate, densitometry; FIGS. 13A-B
Method: as §8, §9

mice = settings: cited from earlier work
cancer patients = settings: AS101 in combination with chemotherapy; cited from earlier work
[8] = tested on: tumor models in mice and humans; settings: cited from earlier work
sperm nuclear DNA = assay type: in vivo, mice; settings: Cy 200 mg/kg ip weekly for 5 weeks; AS101 10 μg/mouse ip every other day; FIG. 9
Method: as §5, §6, §7

Balb/c male mice [9] = assay type: in vivo; settings: females mated with treated males, Cy 200 mg/kg ip weekly for 5 weeks
Method: as §4, §5, §6, §7

For `CNNCc1ccc(C(=O)NC(C)C)cc1` [PCB, Procarbazine], the average testicular weight (Balb/c male mice [1]; PCB single dose 200 mg/kg, normalized to mouse weight, 10 mice per group) was 1.9±0.2 mg per grams body weight, the “testicular histology (hematoxylin/eosin sections)” value (Balb/c male mice [2]) was “empty and atrophic seminiferous tubules” and the litter size (Balb/c male mice [3]; 5 male mice per group, FIG. 4) was 1.4±2.9. The “percentage of impregnated females” value (Balb/c male mice [3]; FIG. 5) was 20%, the “percentage of cells with 1N (haploid) DNA in the testes” value (testicular cells) was 24.2±4.0% and the “percentage of cells with 2N (diploid) DNA in the testes” value (testicular cells) was 54.9±4.2%. For the same compound, the “percentage of cells with 4N (tetraploid) DNA in the testes” value (testicular cells) was 4.7±0.4%.

In the case of `Cl[TeH]1(Cl)(Cl)OCCO1.N` [AS101, ammonium trichloro(dioxyethylene-O,O′)tellurate], the “effect of AS101 alone on testicular weight” value (Balb/c male mice [1]; no PCB) is reported as “no significant effect”, the Body weight (Balb/c male mice [4]) is reported as 26.2 ± 1.0 gram and the Epididymis weight (Balb/c male mice [4]) is reported as 34.2 ± 4.2 mg. The “Epididymis weight (normalized to body weight)” value (Balb/c male mice [4]) was 1.3 ± 0.1 mg/gram body weight, the Testes weight (Balb/c male mice [4]) was 105.7 ± 14.7 mg and the “Testes weight (normalized to body weight)” value (Balb/c male mice [4]) was 4.3 ± 0.3 mg/gram body weight. The Sperm concentration (Balb/c male mice [4]) was 22.5 ± 3.8 10^6 cells/ml, the “testicular histology (seminiferous tubules, cross sections)” value (Balb/c male mice [5]) was “normal cellular content; also recorded: no effect on testicular histology” and the “average level of phosphorylated Akt (pAkt)” value [6] was 175.3±28.4%. For the same compound, the “level of phosphorylated GSK-3β (pGSK-3β)” value [7] was 130.3±16.9%, the “protection from hematopoietic damage” value (mice; lethal and sublethal doses of chemotherapeutic drugs, including cyclophosphamide) was “protect mice from hematopoietic damage” and the survival of mice (mice; mice treated with various cytotoxic drugs or radiation) was “increase the survival of mice”. The “severity of neutropenia, thrombocytopenia and alopecia that accompany chemotherapy” value (cancer patients) was “significant reduction in the severity of neutropenia, thrombocytopenia, and alopecia”, the “combination effect with Cy” value ([8]; treatment of tumor-bearing mice) was “synergistic effect with Cy” and the anti-tumoral effect ([8]; variety of tumor models in mice and humans) was “clear anti-tumoral effect”.

In the case of `O=P1(N(CCCl)CCCl)NCCCO1` (stereo not drawn) [Cy, cyclophosphamide], the deaths (Balb/c male mice [4]) is reported as “no deaths occurred”, the Body weight (Balb/c male mice [4]) is reported as 22.8 ± 2.1 gram and the Epididymis weight (Balb/c male mice [4]) is reported as 25.1 ± 2.9 mg. The “Epididymis weight (normalized to body weight)” value (Balb/c male mice [4]) was 1.1 ± 0.1 mg/gram body weight, the Testes weight (Balb/c male mice [4]) was 46.3 ± 8.7 mg and the “Testes weight (normalized to body weight)” value (Balb/c male mice [4]) was 1.98 ± 0.16 mg/gram body weight. The Sperm concentration (Balb/c male mice [4]) was 8.7 ± 1.6* 10^6 cells/ml, the “average percentage of damaged seminiferous tubules” value (Balb/c male mice [5]; FIG. 8) was 76.0±10.8% and the “testicular histology (seminiferous tubules, cross sections)” value (Balb/c male mice [5]) was “empty and atrophic seminiferous tubules”. The “percentage of sperm cells with abnormal chromatin structure (% DFI)” value (sperm nuclear DNA) was 44.7±1.0%, the “percentage of impregnated females” value (Balb/c male mice [9]; FIG. 10) was 20.0±4.2% and the “litter size of females which did achieve pregnancy” value (Balb/c male mice [9]; FIG. 11) was 4.3±1.4. For the same compound, the “average level of phosphorylated Akt (pAkt)” value [6] was 55.3±25.6% and the “level of phosphorylated GSK-3β (pGSK-3β)” value [7] was 36.4±12.5%.
